Experimental data published in PubChem BioAssay AID2060495 (Molecular Pharmacology Branch, DTP, NCI, 2025).
Each block holds one molecule with its values, some of them ahead of it.

Tested on: 521955-158-R2-J5-PDC complex spheroid viability
Assay: Anticancer human tumor 521955-158-R2-J5-PDC patient-derived pancreatic carcinoma cell line growth inhibition [GQUAD]
Details: for IC50: curve of first compound; for viability, T/C: stronger effect = lower value
Procedure, shortened: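 Tumor cells were grown as complex spheroids with HUVEC endothelial cells and mesenchymal stem cells as stroma. G-quadruplex stabilizers were combined with targeted agents over half-log dilutions from near the clinical Cmax, or from 10 microM.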

[1] = second compound 0.0316 µM, first compound 0.0316 µM
[2] = second compound 0.0316 µM, first compound 0.1 µM
[3] = second compound 0.0316 µM, first compound 0.316 µM
[4] = second compound 0.0316 µM, first compound 1 µM
[5] = second compound 0.0316 µM, first compound 3.16 µM
[6] = second compound 0.0316 µM, first compound 10 µM
[7] = second compound 0.1 µM, first compound 0.0316 µM
[8] = second compound 0.1 µM, first compound 0.1 µM
[9] = second compound 0.1 µM, first compound 0.316 µM
[10] = second compound 0.1 µM, first compound 1 µM
[11] = second compound 0.1 µM, first compound 3.16 µM
[12] = second compound 0.1 µM, first compound 10 µM
[13] = second compound 0.316 µM, first compound 0.0316 µM
[14] = second compound 0.316 µM, first compound 0.1 µM
[15] = second compound 0.316 µM, first compound 0.316 µM
[16] = second compound 0.316 µM, first compound 1 µM
[17] = second compound 0.316 µM, first compound 3.16 µM
[18] = second compound 0.316 µM, first compound 10 µM
[19] = second compound 1 µM, first compound 0.0316 µM
[20] = second compound 1 µM, first compound 0.1 µM
[21] = second compound 1 µM, first compound 0.316 µM
[22] = second compound 1 µM, first compound 1 µM
[23] = second compound 1 µM, first compound 3.16 µM
[24] = second compound 1 µM, first compound 10 µM
[25] = second compound 3.16 µM, first compound 0.0316 µM
[26] = second compound 3.16 µM, first compound 0.1 µM
[27] = second compound 3.16 µM, first compound 0.316 µM
[28] = second compound 3.16 µM, first compound 1 µM
[29] = second compound 3.16 µM, first compound 3.16 µM
[30] = second compound 3.16 µM, first compound 10 µM
[31] = second compound 10 µM, first compound 0.0316 µM
[32] = second compound 10 µM, first compound 0.1 µM
[33] = second compound 10 µM, first compound 0.316 µM
[34] = second compound 10 µM, first compound 1 µM
[35] = second compound 10 µM, first compound 3.16 µM
[36] = second compound 10 µM, first compound 10 µM
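Also: spheroids exposed to agents for one week before reading.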
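For viability, T/C in this document: 100% = DMSO vehicle control viability.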

- IC50 (second compound 0.0316 µM): < 31.6 nM
- IC50 (second compound 0.1 µM): < 31.6 nM
- IC50 (second compound 0.316 µM): < 31.6 nM
- IC50 (second compound 1 µM): < 31.6 nM
- IC50 (second compound 3.16 µM): < 31.6 nM
- IC50 (second compound 10 µM): < 31.6 nM
Compound: C#Cc1c(F)ccc2cc(O)cc(-c3ncc4c(N5CC6CCC(C5)N6)nc(OCC56CCCN5CC(F)C6)nc4c3F)c12 (stereo unspecified) + Cc1cnc(CNC(=O)c2c(=O)c3ccc(N4CCCN(C)CC4)nc3n3c2sc2ccccc23)cn1
- viability, T/C [1]: 35.4%
- viability, T/C [2]: 31.3%
- viability, T/C [3]: 26.2%
- viability, T/C [4]: 19.1%
- viability, T/C [5]: 17.9%
- viability, T/C [6]: 13.9%
- viability, T/C [7]: 24.5%
- viability, T/C [8]: 26.6%
- viability, T/C [9]: 21.4%
- viability, T/C [10]: 18.3%
- viability, T/C [11]: 17.2%
- viability, T/C [12]: 13.3%
- viability, T/C [13]: 19.3%
- viability, T/C [14]: 20%
- viability, T/C [15]: 18.3%
- viability, T/C [16]: 16.1%
- viability, T/C [17]: 14.1%
- viability, T/C [18]: 11.5%
- viability, T/C [19]: 11.3%
- viability, T/C [20]: 12.6%
- viability, T/C [21]: 10.9%
- viability, T/C [22]: 8.41%
- viability, T/C [23]: 9.79%
- viability, T/C [24]: 5.56%
- viability, T/C [25]: 2.92%
- viability, T/C [26]: 0.7%
- viability, T/C [27]: 2.89%
- viability, T/C [28]: 0.31%
- viability, T/C [29]: 0.11%
- viability, T/C [30]: 0.08%
- viability, T/C [31]: 0.08%
- viability, T/C [32]: 0.7%
- viability, T/C [33]: 0.19%
- viability, T/C [34]: 0.15%
- viability, T/C [35]: 0.18%
- viability, T/C [36]: 0.16%

- IC50 (second compound 0.0316 µM): 77.1 nM
- IC50 (second compound 0.1 µM): 124 nM
- IC50 (second compound 0.316 µM): < 31.6 nM
- IC50 (second compound 1 µM): < 31.6 nM
- IC50 (second compound 3.16 µM): < 31.6 nM
- IC50 (second compound 10 µM): < 31.6 nM
Compound: C=CCn1c(=O)c2cnc(Nc3ccc(N4CCN(C)CC4)cc3)nc2n1-c1cccc(C(C)(C)O)n1 + Cc1cnc(CNC(=O)c2c(=O)c3ccc(N4CCCN(C)CC4)nc3n3c2sc2ccccc23)cn1
- viability, T/C [1]: 67%
- viability, T/C [2]: 44.9%
- viability, T/C [3]: 19.5%
- viability, T/C [4]: 10%
- viability, T/C [5]: 7.12%
- viability, T/C [6]: 11.2%
- viability, T/C [7]: 53.5%
- viability, T/C [8]: 56%
- viability, T/C [9]: 30.3%
- viability, T/C [10]: 17.6%
- viability, T/C [11]: 13.1%
- viability, T/C [12]: 11.6%
- viability, T/C [13]: 35.1%
- viability, T/C [14]: 45.4%
- viability, T/C [15]: 28.4%
- viability, T/C [16]: 20.1%
- viability, T/C [17]: 15.9%
- viability, T/C [18]: 11.2%
- viability, T/C [19]: 17.4%
- viability, T/C [20]: 19.6%
- viability, T/C [21]: 21.1%
- viability, T/C [22]: 17.7%
- viability, T/C [23]: 14.3%
- viability, T/C [24]: 10.1%
- viability, T/C [25]: 13.3%
- viability, T/C [26]: 16.3%
- viability, T/C [27]: 17.8%
- viability, T/C [28]: 11.6%
- viability, T/C [29]: 11.7%
- viability, T/C [30]: 2.19%
- viability, T/C [31]: 11.6%
- viability, T/C [32]: 15%
- viability, T/C [33]: 15.4%
- viability, T/C [34]: 8.4%
- viability, T/C [35]: 0.28%
- viability, T/C [36]: 0.23%

- IC50 (second compound 0.0316 µM): 1680 nM
- IC50 (second compound 0.1 µM): 1200 nM
- IC50 (second compound 0.316 µM): < 31.6 nM
- IC50 (second compound 1 µM): < 31.6 nM
- IC50 (second compound 3.16 µM): < 31.6 nM
- IC50 (second compound 10 µM): < 31.6 nM
Compound: CC(C)(O)C1CCC(Nc2ccc3ncc(-c4cccc(C(F)(F)F)c4)n3n2)CC1 (stereo unspecified) + Cc1cnc(CNC(=O)c2c(=O)c3ccc(N4CCCN(C)CC4)nc3n3c2sc2ccccc23)cn1
- viability, T/C [1]: 79%
- viability, T/C [2]: 64.6%
- viability, T/C [3]: 90.4%
- viability, T/C [4]: 106%
- viability, T/C [5]: 6.53%
- viability, T/C [6]: 7.58%
- viability, T/C [7]: 57.4%
- viability, T/C [8]: 57.8%
- viability, T/C [9]: 56.5%
- viability, T/C [10]: 58.6%
- viability, T/C [11]: 9.19%
- viability, T/C [12]: 8.3%
- viability, T/C [13]: 36.9%
- viability, T/C [14]: 30.2%
- viability, T/C [15]: 34%
- viability, T/C [16]: 31.8%
- viability, T/C [17]: 7.87%
- viability, T/C [18]: 8.39%
- viability, T/C [19]: 18.4%
- viability, T/C [20]: 21.1%
- viability, T/C [21]: 16.7%
- viability, T/C [22]: 22.3%
- viability, T/C [23]: 0.25%
- viability, T/C [24]: 1.56%
- viability, T/C [25]: 18.8%
- viability, T/C [26]: 16.6%
- viability, T/C [27]: 17.7%
- viability, T/C [28]: 15%
- viability, T/C [29]: 0.12%
- viability, T/C [30]: 0.12%
- viability, T/C [31]: 9.8%
- viability, T/C [32]: 14%
- viability, T/C [33]: 10.7%
- viability, T/C [34]: 8.62%
- viability, T/C [35]: 0.21%
- viability, T/C [36]: 0.23%
